The structures appear in SMILES notation.

Test [1] deals with Delta-type opioid receptor (Mus musculus, UniProt P32300). Put plainly: Functional bioactivity against delta opioid receptor in mouse vas deferens. The test is classed as tissue-based. The conditions noted are these: for Kb: read-out: pA2 (converted).
Test [2] addresses Delta-type opioid receptor (Rattus norvegicus, UniProt P33533). The experiment in a line: Displacement of [3H]deltorphin II from rat delta opioid receptor in brain P2 synaptosomes. The test is classed as subcellular.
The target in test [3] is Mu-type opioid receptor (Rattus norvegicus, UniProt P33535). The experiment in a line: Displacement of [3H]DAMGO from rat mu opioid receptor in brain P2 synaptosomes. The test is classed as subcellular. For orientation: Displacement assays read how much labelled ligand stays bound in the presence of the test substance.
Chain of Mu-type opioid receptor (Rattus norvegicus, UniProt P33535) (P33535 whole entry): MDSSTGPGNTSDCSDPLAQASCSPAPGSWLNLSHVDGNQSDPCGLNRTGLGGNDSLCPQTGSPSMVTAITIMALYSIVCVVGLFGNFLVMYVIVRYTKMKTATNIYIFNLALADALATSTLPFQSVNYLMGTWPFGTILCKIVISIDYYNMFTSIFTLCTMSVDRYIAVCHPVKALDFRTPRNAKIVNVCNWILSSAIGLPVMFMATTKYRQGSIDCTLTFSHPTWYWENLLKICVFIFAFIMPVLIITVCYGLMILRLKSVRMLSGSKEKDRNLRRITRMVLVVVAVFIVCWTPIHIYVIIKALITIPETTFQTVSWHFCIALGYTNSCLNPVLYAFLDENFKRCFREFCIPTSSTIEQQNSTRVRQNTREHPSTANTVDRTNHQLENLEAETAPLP
For test [4], the target named is Mu-type opioid receptor (Cavia porcellus, UniProt P97266). The experiment in a line: Functional bioactivity against mu opioid receptor in guinea-pig ileum. The test is classed as tissue-based.
Chain of Mu-type opioid receptor (Cavia porcellus, UniProt P97266) (P97266 whole entry): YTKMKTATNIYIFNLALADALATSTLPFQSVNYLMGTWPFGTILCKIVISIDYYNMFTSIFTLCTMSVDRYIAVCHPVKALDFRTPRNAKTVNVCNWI

Chain of Delta-type opioid receptor (Mus musculus, UniProt P32300) (P32300 whole entry): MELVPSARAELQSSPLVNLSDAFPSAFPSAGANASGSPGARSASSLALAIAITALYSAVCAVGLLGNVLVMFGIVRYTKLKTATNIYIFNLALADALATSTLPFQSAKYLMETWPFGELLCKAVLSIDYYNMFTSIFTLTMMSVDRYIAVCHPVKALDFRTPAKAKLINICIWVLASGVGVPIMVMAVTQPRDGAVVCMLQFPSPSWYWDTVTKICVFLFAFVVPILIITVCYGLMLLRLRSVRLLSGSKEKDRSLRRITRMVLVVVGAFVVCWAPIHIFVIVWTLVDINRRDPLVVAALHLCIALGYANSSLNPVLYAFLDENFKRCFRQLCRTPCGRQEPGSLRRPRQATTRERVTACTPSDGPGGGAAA
Chain of Delta-type opioid receptor (Rattus norvegicus, UniProt P33533) (P33533 whole entry): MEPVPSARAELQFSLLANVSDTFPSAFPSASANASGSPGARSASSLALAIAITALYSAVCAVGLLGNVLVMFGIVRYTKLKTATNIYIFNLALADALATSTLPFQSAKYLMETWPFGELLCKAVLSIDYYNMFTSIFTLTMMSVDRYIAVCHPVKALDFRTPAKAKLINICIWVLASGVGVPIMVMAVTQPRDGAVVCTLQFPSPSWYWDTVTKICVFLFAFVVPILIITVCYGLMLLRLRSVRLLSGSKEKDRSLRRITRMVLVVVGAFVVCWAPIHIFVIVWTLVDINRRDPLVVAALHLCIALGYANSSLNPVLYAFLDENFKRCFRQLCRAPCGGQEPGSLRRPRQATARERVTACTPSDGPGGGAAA

`C=CCn1c(CNC(=O)[C@@H]2Cc3ccccc3CN2C(=O)[C@@H](N)Cc2c(C)cc(O)cc2C)nc2ccccc21`: the IC50 (commonly the concentration that inhibits the measured activity by half) is “Not Active” in test [1] and 72 nM in test [4]. Moreover, the Kb in test [1] was 0.457 nM. The Ki (commonly the equilibrium dissociation constant of an inhibitor or competing ligand from its target) in test [2] came to 0.13 nM; in test [3], 0.44 nM.

Take `Cc1cc(O)cc(C)c1C[C@H](N)C(=O)N1Cc2ccccc2C[C@H]1C(=O)NCc1nc2ccccc2n1Cc1ccccc1`: the IC50 result in test [1] was “Not Active”; in test [4], 245 nM. For the same compound, the Kb in test [1] was 3.02 nM. Besides, the results for the Ki in test [2] and in test [3] were 0.2 nM and 1.02 nM, respectively.

`C[C@@H](NC(=O)[C@@H](N)Cc1ccc(O)cc1)C(=O)N[C@@H](Cc1ccccc1)C(=O)NCC(=O)N[C@@H](Cc1ccc(O)cc1)C(=O)N1CCC[C@H]1C(=O)N[C@@H](CO)C(N)=O` [DERMORPHIN] displayed an IC50 in test [4] of 1.9 nM.

With `CCOC(=O)Cn1c(CNC(=O)[C@@H]2Cc3ccccc3CN2C(=O)[C@@H](N)Cc2c(C)cc(O)cc2C)nc2ccccc21`, the values for the IC50 entry in test [1] and in test [4] were “Not Active” and 30 nM, respectively. The Kb in test [1] is 0.17 nM. Moreover, the Ki in test [2] was 0.12 nM; in test [3], 1.42 nM.

Regarding `Cc1cc(O)cc(C)c1C[C@H](N)C(=O)N1Cc2ccccc2C[C@H]1C(=O)NCc1nc2ccccc2n1CC(=O)O`, the IC50 result in test [1] was “Not Active”; in test [4] it was 3190 nM. The Kb in test [1] was 0.269 nM. In addition, the Ki in test [2] was determined as 0.021 nM; in test [3], 6.92 nM.

In turn, `CC(C)[C@H](NC(=O)[C@H](CC(=O)O)NC(=O)[C@H](Cc1ccccc1)NC(=O)[C@@H](C)NC(=O)[C@@H](N)Cc1ccc(O)cc1)C(=O)N[C@H](C(=O)NCC(N)=O)C(C)C` [DELTORPHIN C] gave an IC50 in test [4] of 1300 nM.

With `Cc1cc(O)cc(C)c1C[C@H](N)C(=O)N1Cc2ccccc2C[C@H]1C(=O)NCc1nc2ccccc2n1CC1CC1`, the IC50 result in test [1] is “Not Active”; in test [4] it was 64 nM. Besides, the Kb in test [1] is 0.339 nM. Besides, the Ki is 0.36 nM in test [2] and 0.52 nM in test [3].

As to `Cc1cc(O)cc(C)c1C[C@H](N)C(=O)N1Cc2ccccc2C[C@H]1C(=O)NCc1nc2ccccc2n1C`, the IC50 entry in test [1] is “Not Active”; in test [4], 450 nM. In test [1], the Kb was 0.0724 nM. Further, the Ki amounted to 0.16 nM in test [2] and 0.83 nM in test [3].

Source of the values: ChEMBL document CHEMBL1140429, “Conversion of the potent delta-opioid agonist H-Dmt-Tic-NH-CH(2)-bid into delta-opioid antagonists by N(1)-benzimidazole alkylation(1)” (J Med Chem, 2005).
